Test: Agilent ZORBAX 300 SB-C18, 150 × 1 mm, 3.5 µm; A: water + 0.01% heptafluorobutyric acid; B: acetonitrile + 0.01% heptafluorobutyric acid; gradient (min/%B) 0/0 100/90
Details: stereoisomer not certain

Row | Compound | LC retention time [min]
1 | C=CCN1CCC23c4c5ccc(O)c4OC2C(=O)CCC3(O)C1C5 (stereo not given) | 8.17
2 | CC(=O)N1CCC(C2CCNCC2)CC1 | 7
3 | Cc1[nH]c2ccccc2c1CCN1C(=O)C2CCCCC2C1=O (stereo not given) | 14.3
4 | c1ccc(CC2CCN(Cc3ccccn3)CC2)cc1 | 10.1
5 | CNc1ccccc1C | 8.19
6 | O=c1[nH]c(=O)n(CCc2ccccc2)c2c1CN(C1CCCC1)CN2 | 8.61
7 | COc1ccc(C2CC(=O)Nc3cc4c(cc32)OCO4)cc1 (stereo not given) | 11.9
8 | CCCCSCCSC(=N)N | 9.27
9 | COc1ccc(CN2CCC(N)CC2)cc1OC | 7.7
10 | CC(=O)C1C(=O)C=C(c2ccco2)CC1c1ccco1 (stereo not given) | 13.2
11 | Cc1ccc(C(=O)NCCn2cccc2)cc1 | 11.9
12 | O=C(CCCN1C(=O)c2ccccc2C1=O)OCc1ccccc1 | 15.1
13 | Nc1ccc2nccnc2c1 | 7.1
14 | CN1CCOCC1 | 3.96
15 | CCCNC(C)C(=O)Nc1c(C)csc1C(=O)OC (stereo not given) | 9.27
16 | CN1C2CC(OC(=O)C(CO)c3ccccc3)CC1C1OC12 (stereo not given) | 8.47
17 | CCOC(=O)C(N)Cc1ccccc1 (stereo not given) | 9.03
18 | O=C(O)CNc1ccccc1C(=O)O | 9.2
19 | O=C(O)Cc1c(C(=O)O)[nH]c2ccc(C(=O)O)cc12 | 7.21
20 | CCOc1ccc(C=CC(=O)c2ccc(C)cc2)cc1 | 17.8
21 | O=C(O)CCCNC(=O)CCCCCCCC(=O)NCCCC(=O)O | 7.58
22 | CC(C)c1ccc(N)cc1 | 9
23 | N=C(N=C(N)N)N1CCOCC1 | 6.32
24 | Cc1cncc(C)n1 | 7.44
25 | CCc1ccc(NCCC(=O)c2ccc3c(c2)Cc2ccccc2-3)cc1 | 16.3
26 | COC(=O)Cn1c(C)cc(C)c(N)c1=O | 7.8
27 | Nc1ccc(N)cc1 | 4.51

Row | Compound | LC retention time [min]
28 | O=c1cc[nH]cc1 | 4.89
29 | Cc1ccc(OC(=O)CCC(=O)N2CCN(C(=O)CCC(=O)Oc3ccc(C)cc3)CC2)cc1 | 14.3
30 | Cc1ccc(C(=O)NC(=Cc2ccc(C(C)C)cc2)C(=O)NCc2cccnc2)cc1 | 11.9
31 | NC1CCOCC1 | 4.24
32 | CC1=NC(=O)NC(C2CC=CCC2)C1C(=O)OC(C)C (stereo not given) | 12.3
33 | CCNC(=S)NNC(=S)NCc1ccccc1 | 10.9
34 | CC(C)C(C)N (stereo not given) | 6.98
35 | CN(C)C(=O)Oc1cc(OC(=O)N(C)C)cc(C(O)CNC(C)(C)C)c1 (stereo not given) | 9.59
36 | CC1CCc2[nH]c3ccccc3c2C1 (stereo not given) | 16.9
37 | Cn1c(=O)n(-c2cccc(N)c2)c(=O)n1C | 7.06
38 | c1ccc(CNc2ccccn2)cc1 | 8.6
39 | Cc1nnc(N)[nH]c1=O | 2.72
40 | c1ccc2c(NC3=NCCS3)cccc2c1 | 9.27
41 | CN(C)C(=O)c1ccccc1 | 8.98
42 | Cc1[nH]c(=S)[nH]c1CC(C)C | 9.02
43 | CN(C)CCN(Cc1ccccc1)c1ccccn1 | 10.1
44 | CC(=NNC(=O)CNC(=O)c1ccco1)c1ccc(C(C)(C)C)cc1 | 13.9
45 | CCOC(=O)C1=CN(c2cc(C)ccc2C)C=C(C(=O)OCC)C1c1cccc(C)c1 | 21.5
46 | C[N+](C)(CCOCc1ccccc1)CCOCc1ccccc1 | 11.7
47 | O=C(CN1CCc2ccccc2C1)NC1CCCC1 | 8.99
48 | CCc1cccnc1 | 6.88
49 | C=CCNC1(c2ccccc2)CCCCC1 | 9.71
50 | Cc1cc(C)cc(N)c1 | 8.29
51 | CCCCCCCCCCC(N)=O | 15.3
52 | CCCCCCCCCCCCCN | 14
53 | Nc1ccnc2ccccc12 | 7.32
54 | CCc1ncc(C)[nH]1 | 6.62

Further lines, results first:

Row | LC retention time [min] | Compound
55 | 14.2 | COc1ccc(NC(=O)c2ccc(C)cc2)c(OC)c1
56 | 7.41 | CC(=O)Nc1ccc(C(=O)NCc2ccccn2)cc1
57 | 11.8 | O=c1[nH]c(N=NCc2c[nH]c3ccccc23)nnc1-c1ccccc1
58 | 7.38 | O=C(O)CNC(=O)c1ccccc1
59 | 8.44 | CC1C(=O)CCN(C(C)(C)C)C1C (stereo not given)
60 | 11.8 | c1ccc(C(NCc2cccs2)c2ccccc2)cc1
61 | 11.1 | CC(=O)c1ccc2c(c1)N(CCCN(C)C)c1ccccc1S2
62 | 13.9 | O=Cc1c(-c2ccccc2)c(C=O)n2ccccc12
63 | 10.1 | c1cncc(-c2cc3ccccc3[nH]2)c1
64 | 10.9 | O=C(NN=Cc1cc2ccccc2[nH]1)c1ccccc1
65 | 10.4 | COC(=O)c1ccc2ccccc2n1
66 | 8.53 | CCCCCCN(C)C
67 | 8.5 | Cn1c(=O)c2cc(C(=O)O)ccc2n(C)c1=O
68 | 9.88 | Nc1cc(C(=O)N2CCCCC2)cc(C(=O)N2CCCCC2)c1
69 | 13.8 | c1ccc(CCn2c(-c3ccccc3)csc2=Nc2ccccc2)cc1
70 | 8.91 | CN(C)C1C(=O)C(C(=O)NCN2CCCC2)C(=O)C2(O)C(=O)C3C(=O)c4c(O)cccc4C(C)(O)C3CC12 (stereo not given)
71 | 13.2 | CCOC(=O)c1ccc(NC(=O)C2CC(=O)N(C3CCCCC3)C2)cc1 (stereo not given)
72 | 1.71 | NC(=O)NCCCC(N)C(=O)O (stereo not given)
73 | 15.4 | c1ccc(-c2nc3ccccc3o2)cc1
74 | 18.3 | CCC(c1ccc(C)cc1)N(NC(=O)C(O)(c1ccc(C)cc1)c1ccc(C)cc1)C(=O)c1ccccc1 (stereo not given)
75 | 13.6 | Cc1[nH]c2ccccc2c1CCNC(=O)C1CCCCC1

Row | LC retention time [min] | Compound
76 | 9.39 | CCN(CC)C(=O)c1ccc(O)c(OC)c1
77 | 10.8 | CC(=O)c1cc2ccccc2oc1=O
78 | 7.63 | NC1CCCCC1
79 | 5.92 | CC(=O)CNC(C)(C)C(C)=O
80 | 6.96 | CCNCCN(CC)CC
81 | 12.6 | Cc1cccc2cc[nH]c12
82 | 7.72 | O=C(O)CC1C(=O)Nc2ccccc21 (stereo not given)
83 | 13.5 | COc1ccccc1NC(=O)C(=Cc1ccc(OC)c(OC)c1)NC(=O)c1ccccc1
84 | 15.2 | COc1ccc(OC)c(C(=O)C=Cc2ccc(OC)c(OC)c2OC)c1
85 | 9.12 | c1cc2c(cc1NC1=NCCCCC1)OCCO2
86 | 7.8 | CCN(CC)CCn1cnc2c1c(=O)n(C)c(=O)n2C
87 | 9.95 | C#CC(C)(C)NC(=O)NC(C)(C)C#C
88 | 6.49 | NCC1CCNCC1
89 | 10.3 | Nc1ccc2c(c1)SSc1cc(N)ccc1-2
90 | 4.79 | O=c1cccc[nH]1
91 | 11 | O=c1[nH]c(-c2ccccc2)nc2ccccc12
92 | 6.98 | C=CCN(C)CC=C
93 | 15.1 | CCCCC1(C)NC(=S)N(c2ccc(C)cc2)N1 (stereo not given)
94 | 7.45 | NCC(=O)Nc1ccccc1
95 | 17 | CCOC(=O)c1c(C)n(-c2ccccc2)c2ccc(OC(C)=O)cc12
